The values that follow come from ChEMBL document CHEMBL3576842, “Selenium-containing chrysin and quercetin derivatives: attractive scaffolds for cancer therapy” (J Med Chem, 2015).

Structures are written as SMILES.

Series [1] is described as follows: Antioxidant activity assessed as DPPH radical scavenging activity at 1 mM after 1 hr. Type of series: physicochemical. Particulars: 1000 µM.
Series [2] has as its system HEK293. Briefly: Selectivity index, ratio of IC50 for HEK293 cells to IC50 for human A431 cells. The series is classed as functional.
Series [3] has as its system A-375. Briefly: Cytotoxicity against human A375 cells assessed as cell growth inhibition after 72 hrs by MTT assay. Type of series: functional, cell-based. Particulars: A-375, 72 h.
In series [4] the test system is HEK293. Kind of series: Selectivity index, ratio of IC50 for HEK293 cells to IC50 for human BxPC3 cells. The series is classed as functional.
The test system of series [5] is HEK293. Briefly: Cytotoxicity against HEK293 cells assessed as cell growth inhibition after 72 hrs by MTT assay. Type of series: cell-based. Particulars: Homo sapiens, HEK293, 72 h.
The test system of series [6] is A-431. Briefly: Cytotoxicity against cisplatin-resistant human A431 cells assessed as cell growth inhibition after 72 hrs by MTT assay. Type of series: functional, cell-based. Particulars: A-431, 72 h.
Series [7] in a line: Antioxidant activity assessed as DPPH radical scavenging activity after 1 hr. The series is classed as physicochemical.
Series [8] has as its system C13. Kind of series: Resistance factor, ratio of IC50 for cisplatin-resistant human C13 cells to IC50 for human 2008 cells. The series is classed as functional.
The test system of series [9] is NCI/ADR-RES. Briefly: Resistance factor, ratio of IC50 for human MCF7/ADR cells to IC50 for human MCF7 cells. The series is classed as functional.
Series [10] relates to A-431. Briefly: Cytotoxicity against human A431 cells assessed as cell growth inhibition after 72 hrs by MTT assay. The note with it: A-431, 72 h. The series is classed as functional, cell-based.
Series [11] concerns A-431. Kind of series: Resistance factor, ratio of IC50 for cisplatin-resistant human A431 cells to IC50 for human A431 cells. The series is classed as functional.
In series [12] the test system is HEK293. Kind of series: Selectivity index, ratio of IC50 for HEK293 cells to IC50 for cisplatin-resistant human A431 cells. The series is classed as functional.
In series [13] the test system is C13. Briefly: Selectivity index, ratio of IC50 for HEK293 cells to IC50 for human C13 cells. The series is classed as functional.
The subject of series [14] is HEK293. Briefly: Selectivity index, ratio of IC50 for HEK293 cells to IC50 for human HCT15 cells. The series is classed as functional.
The subject of series [15] is HEK293. Kind of series: Selectivity index, ratio of IC50 for HEK293 cells to IC50 for human 2008 cells. Type of series: functional.
Series [16] relates to HEK293. Kind of series: Selectivity index, ratio of IC50 for HEK293 cells to IC50 for human A375 cells. The series is classed as functional.
The subject of series [17] is NCI/ADR-RES. Kind of series: Selectivity index, ratio of IC50 for HEK293 cells to IC50 for human MCF7/ADR cells. Type of series: functional.
The subject of series [18] is HEK293. Briefly: Selectivity index, ratio of IC50 for HEK293 cells to IC50 for human MCF7 cells. Type of series: functional.
Series [19] can be described thus: Cytotoxicity against human BxPC3 cells assessed as cell growth inhibition after 72 hrs by MTT assay. Type of series: functional, cell-based. Particulars: BXPC-3, 72 h.
The nature of series [20]: Cytotoxicity against human C13 cells assessed as cell growth inhibition after 72 hrs by MTT assay. The series is classed as functional, cell-based. Particulars: C13, 72 h.
Series [21] in a line: Cytotoxicity against human MCF7/ADR cells assessed as cell growth inhibition after 72 hrs by MTT assay. Type of series: functional, cell-based. Particulars: NCI/ADR-RES.
Series [22] concerns 2008. Briefly: Cytotoxicity against human 2008 cells assessed as cell growth inhibition after 72 hrs by MTT assay. The series is classed as functional, cell-based. The note with it: Homo sapiens, 2008, 72 h.
The subject of series [23] is HCT-15. Briefly: Cytotoxicity against human HCT15 cells assessed as cell growth inhibition after 72 hrs by MTT assay. The series is classed as functional, cell-based. Particulars: HCT-15, 72 h.
Series [24] concerns MCF7. Briefly: Cytotoxicity against human MCF7 cells assessed as cell growth inhibition after 72 hrs by MTT assay. Type of series: functional, cell-based. Particulars: MCF7, 72 h.

Take `O=c1c(O)c(-c2ccc(O)c(O)c2)oc2cc(O)cc(O)c12` [QUERCETIN]: in series [1], the Activity was determined as 95.6%. In addition, the “Ratio IC50” value in series [2] worked out at 2.5; in series [4], 2.5; in series [8] it was 1.8; in series [9], 1.1; in series [11], 1.5; in [12], 2.5. Besides, the “Ratio IC50” value in [13], in series [14], in series [15], in series [16], in series [17] and in [18] was 2.5 in each case. Moreover, the IC50 was 25.1 µM in series [3]; 54.6 µM in [5]; 34.4 µM in series [6]; 28 µM in series [7]; 23 µM in series [10]; 24.1 µM in [19]. Also, the IC50 in series [20] stood at 37.6 µM; in series [21], 22.2 µM; in series [22], 21.2 µM; in [23] it was 16.4 µM; in [24], 20.9 µM.
Consider `COc1cc(O)c2c(=S)c(OC)c(-c3ccc(OC)c(OC)c3)oc2c1`, for which the Activity in series [1] worked out at 18.3%.
As to `O=C1O[C@H]([C@@H](O)CO)C(O)=C1O` [ASCORBIC ACID], the IC50 in series [7] amounted to 6 µM.
Consider `COc1cc(O)c2c(=O)c(OC)c(-c3ccc(OC)c(OC)c3)oc2c1` [RETUSIN], for which the Activity in series [1] was 2.5%. In addition, the “Ratio IC50” value in [2] was 1.6; in [4], 1.6; in [11], 1.4; in series [12], 1.6; in [13], 1.6; in [14] it was 1.6. Further, the “Ratio IC50” value in series [15], in [16], in series [17] and in series [18] was 1.6 each time. The IC50 is 69.7 µM in series [3]; 142 µM in [5]; 82.2 µM in [6]; 57.5 µM in [10]; > 100 µM in [19]; > 100 µM in series [20]. Besides, the IC50 in [21] was > 100 µM; in series [22] it was > 100 µM; in series [23] it was 68.1 µM; in [24], > 100 µM.
Take `Oc1cc(O)c2c(=S)cc(-c3ccccc3)oc2c1`: the “Ratio IC50” value in series [2] came to 1.2; in series [4] it was 1.2; in [8], 1.4; in [9], 1; in series [11], 1.6; in series [12] it was 1.2. In addition, the “Ratio IC50” value in [13], in series [14], in series [15], in [16], in series [17] and in series [18] was 1.2 each time. The IC50 in [3] came to 36.5 µM; in [5], 68.3 µM; in series [6], 98.4 µM; in [7], 4600 µM; in series [10] it was 66.3 µM; in [19], 64.4 µM. Besides, the IC50 in [20] was 58.5 µM; in [21] it was 72.3 µM; in series [22], 41.1 µM; in series [23], 56.6 µM; in [24], 70.4 µM.
For the molecule `O=c1cc(-c2ccccc2)oc2cc(O)cc(O)c12` [CHRYSIN], the “Ratio IC50” value in series [2] is 1.9; in series [4] it was 1.9; in series [8], 1.7; in series [9], 1; in series [11] it was 2; in series [12], 1.9. Besides, the “Ratio IC50” value in series [13], in [14], in series [15], in series [16], in [17] and in series [18] was 1.9 each time. Moreover, the 50% inhibitory concentration (IC50) in [3] was 33.2 µM; in [5] it was 77.5 µM; in series [6], 60.1 µM; in series [10] it was 29.4 µM; in series [19], 54.3 µM; in series [20], 49.7 µM. Moreover, the IC50 in series [21] came out at 51 µM; in series [22], 28.6 µM; in series [23], 54.4 µM; in [24], 50.3 µM.
